# Test results: patent publication US20210322509A1, “Methods for Reducing Perinatal Morbidity and / or Mortality” (CHU SAINTE-JUSTINE, priority 2016, published 2021)
# Marks after values point to notes of the source that are not given here. Non-standard residues stand in square brackets, D forms with d. Residues, ends and D or L forms follow the SMILES beside them. ξ: configuration not given here. dThr(3ξ) = CC(O)[C@@H](N)C(=O)O
# System: progeny of C57Bl/6 dams given LPS and/or compound 2
# Assay: Offspring growth trajectory and body morphometry at 20 weeks after exposure in utero
# Type: in vivo, C57Bl/6 mice
# Conditions: for Adrenals L / Adrenals R / Biceps / Brain / Combined Muscle / Gastrocnemius / Heart / Kidneys L / Kidneys R / Lean body weight / Liver / Lungs / Muscle:fat ratio / Ovary L / Ovary R / Parametrial Fat / Peri-renal Fat / Quadriceps / Retroperitoneal Fat / Spleen / Thymus / Total Central Fat / Triceps / Uterus / Epididymal Fat / Epididymis (L + R) / Seminal Vesicle / Testes L / Testes R: mean ± SEM
# Description: FIGS. 12A and 12B show the effect of exposure to compound 2 in utero on growth trajectory in offspring. Pregnant females were given either LPS or PBS control i.p. on gd 16.5, then compound 2 or PBS vehicle i.p. at 12 h intervals on gd 16.5, 17.0, 17.5 and 18.0. Growth trajectories of male (FIG. 12A) and female (FIG. 12B) progeny of mothers receiving LPS and/or compound 2 are shown as estimated marginal means±SEM, of n=20 male and n=20 female offspring in each group; *P<0.05). Data was analyzed by a Mixed Model Linear Repeated Measures ANOVA and post-hoc Sidak test.
# Animal and treatments. To analyze effects of compound 2 on offspring development into adulthood, pups delivered in the experiment described in Example 5 were weighed at 21 days, when pups were weaned and housed in groups of 1-4 siblings according to sex. All progeny were weighed again at 4 weeks and then every 2 weeks until 20 weeks of age. At 20 weeks, progeny were killed by cervical dislocation, weighed and autopsied for full body composition analysis. The following tissues were excised and weighed individually; brain, heart, lungs (left and right), kidneys (left and right), liver, adrenal glands (left and right), thymus, spleen, testes (males, left and right), seminal vesicle (males), epididymis (males), ovaries (females, left and right), uterus (females), quadriceps (left and right), triceps (left and right), biceps (left and right), gastrocnemius muscle (left and right), retroperitoneal fat, peri-renal fat, epididymal fat (males, left and right) and parametrial fat (females). Weights of bilateral tissues and organs were combined for each mouse. Total muscle weight was calculated by summing the weights of quadriceps, triceps, and biceps and gastrocnemius muscles. Total fat weight was calculated by summing the weights of retroperitoneal fat, peri-renal fat and epididymal fat (for males) or parametrial fat (for females), and the muscle/fat ratio was determined. Total fat weight was subtracted from total body weight to calculate total lean weight.
# [1] = 20 week old adult female progeny, LPS + compound 2 in utero
# [2] = 20 week old adult female progeny, PBS + compound 2 in utero
# [3] = 20 week old adult male progeny, LPS + compound 2 in utero
# [4] = 20 week old adult male progeny, PBS + compound 2 in utero
structure (smiles),measurement,setting,value
CC(C)C[C@@H](NC(=O)[C@@H](CCC(=O)O)NC(=O)[C@H](NC(=O)[C@H](NC(=O)[C@@H](Cc1ccc(O)cc1)NC(=O)[C@H](N)CCCNC(=N)N)C(C)O)C(C)C)C(=O)N[C@H](C)C(=O)O (stereo partly drawn) [compound 2] (H-[dR][dY][dThr(3ξ)][dV][dE][dL][dA]-OH),Adrenals L,[1],4 ± 0 mg
same,Adrenals R,[1],4 ± 0 mg
same,Biceps,[1],48 ± 3 mg
same,Brain,[1],408 ± 9 mg
same,Combined Muscle,[1],673 ± 25 mg
same,Gastrocnemius,[1],207 ± 8 mg
same,Heart,[1],105 ± 4 mg
same,Kidneys L,[1],120 ± 5 mg
same,Kidneys R,[1],127 ± 6 mg
same,Lean body weight,[1],19.44 g
same,Liver,[1],955 ± 38 mg
same,Lungs,[1],165 ± 10 mg
same,Muscle:fat ratio,[1],1.23 ± 0.06
same,Ovary L,[1],13 ± 2 mg
same,Ovary R,[1],13 ± 1 mg
same,Parametrial Fat,[1],180 ± 20 mg
same,Peri-renal Fat,[1],66 ± 7 mg
same,Quadriceps,[1],254 ± 13 mg
same,Retroperitoneal Fat,[1],317 ± 18 mg
same,Spleen,[1],86 ± 7 mg
same,Thymus,[1],70 ± 5 mg
same,Total Central Fat,[1],562 ± 41 mg
same,Triceps,[1],165 ± 7 mg
same,Uterus,[1],66 ± 8 mg
same,Adrenals L,[2],4 ± 0 mg
same,Adrenals R,[2],4 ± 0 mg
same,Biceps,[2],51 ± 3 mg
same,Brain,[2],406 ± 9 mg
same,Combined Muscle,[2],690 ± 24 mg
same,Gastrocnemius,[2],215 ± 8 mg
same,Heart,[2],109 ± 3 mg
same,Kidneys L,[2],112 ± 5 mg
same,Kidneys R,[2],122 ± 6 mg
same,Lean body weight,[2],19.85 g
same,Liver,[2],945 ± 37 mg
same,Lungs,[2],174 ± 11 mg
same,Muscle:fat ratio,[2],1.18 ± 0.06
same,Ovary L,[2],16 ± 2 mg
same,Ovary R,[2],16 ± 1 mg
same,Parametrial Fat,[2],192 ± 20 mg
same,Peri-renal Fat,[2],71 ± 7 mg
same,Quadriceps,[2],254 ± 12 mg
same,Retroperitoneal Fat,[2],326 ± 18 mg
same,Spleen,[2],93 ± 7 mg
same,Thymus,[2],64 ± 5 mg
same,Total Central Fat,[2],589 ± 40 mg
same,Triceps,[2],170 ± 7 mg
same,Uterus,[2],63 ± 7 mg
same,Adrenals L,[3],4 ± 0 mg
same,Adrenals R,[3],3 ± 1 mg
same,Biceps,[3],58 ± 3 mg
same,Brain,[3],413 ± 5 mg
same,Combined Muscle,[3],848 ± 18 mg
same,Epididymal Fat,[3],224 ± 16 mg
same,Epididymis (L + R),[3],102 ± 3* mg
same,Gastrocnemius,[3],260 ± 7 mg
same,Heart,[3],128 ± 3 mg
same,Kidneys L,[3],149 ± 5 mg
same,Kidneys R,[3],159 ± 5 mg
same,Lean body weight,[3],23.04 g
same,Liver,[3],1097 ± 40 mg
same,Lungs,[3],173 ± 4 mg
same,Muscle:fat ratio,[3],1.39
same,Peri-renal Fat,[3],65 ± 6 mg
same,Quadriceps,[3],313 ± 8 mg
same,Retroperitoneal Fat,[3],334 ± 26 mg
same,Seminal Vesicle,[3],218 ± 9 mg
same,Testes L,[3],84 ± 3 mg
same,Testes R,[3],85 ± 3 mg
same,Total Central Fat,[3],625 ± 37 mg
same,Triceps,[3],217 ± 6 mg
same,Adrenals L,[4],5 ± 0 mg
same,Adrenals R,[4],6 ± 2 mg
same,Biceps,[4],67 ± 4 mg
same,Brain,[4],404 ± 7 mg
same,Combined Muscle,[4],840 ± 23 mg
same,Epididymal Fat,[4],244 ± 20 mg
same,Epididymis (L + R),[4],112 ± 4 mg
same,Gastrocnemius,[4],241 ± 9 mg
same,Heart,[4],131 ± 4 mg
same,Kidneys L,[4],156 ± 6 mg
same,Kidneys R,[4],162 ± 6 mg
same,Lean body weight,[4],23.59 g
same,Liver,[4],1141 ± 47 mg
same,Lungs,[4],181 ± 5 mg
same,Muscle:fat ratio,[4],1.28
same,Peri-renal Fat,[4],72 ± 7 mg
same,Quadriceps,[4],318 ± 10 mg
same,Retroperitoneal Fat,[4],353 ± 30 mg
same,Seminal Vesicle,[4],233 ± 12 mg
same,Testes L,[4],85 ± 3 mg
same,Testes R,[4],87 ± 3 mg
same,Thymus,[4],53 ± 4 mg
same,Total Central Fat,[4],669 ± 46 mg
same,Triceps,[4],215 ± 8 mg
same,body composition of adult offspring,"compound 2 exposure in utero, 20 weeks",no effect
same,growth trajectory of male and female offspring,"compound 2 to dams, with or without concurrent LPS exposure, up to 20 weeks",not affected
